≈ marks a conversion by molar mass, not a printed value.
Assays:
Assay type in all cases: cell-based
TK173 cells [1] = assay: Collagen I Western blot in TGFβ1-treated TK173 fibroblasts; conditions: Homo sapiens, Fibroblast, 10 ng/ml TGFβ1 for 5 days, then compound 48 hours, Collagen I immunoblot
Protocol: (§1) Compound reconstitution. Prior to treatment, each compound was used from a stock solution of a concentration of 10 mg/ml in DMSO. Final concentration of DMSO in cell cultures was kept below 0.1%.
(§2) Cell culture and treatment. The human renal fibroblast cell line TK173 was derived from a normal human kidney (laboratory stock; (G. A. Müller et al., Exp. Nephrol. 1995, 3, 127). Cell line stabilization for research purposes was approved by the Ethics Committee of the Georg-August-University. TK173 cells were cultured in Dulbecco's modified Eagle's medium (DMEM, Gibco, USA) supplemented with 10% fetal bovine serum (FBS, Gibco, Germany) and 1% penicillin-streptomycin (PS, Gibco, USA) at 37° C. in a humidified atmosphere with 5% CO2. Cell line was routinely tested for mycoplasma contamination. To investigate the effect of compounds after profibrotic agent treatment, 3×10^4 TK173 cells were seeded in one well of a 6-well culture plate in normal medium. After 24 hours, the culture medium was removed, and the cells were incubated for a further 24 hours in FBS free culture medium (starvation medium). Then, 10 ng/ml TGFβ1 (R&D Systems, USA) was added to the starvation medium, and the culture medium was changed with fresh TGFβ1 in every alternate day. After 5 days of TGFβ1 treatment, cell culture medium was replaced by starvation medium with compounds at different concentration for following 48 hours of incubation.
Protein Extraction. Total proteins were extracted from the cultured cells by NP40 Cell Lysis Buffer (Invitrogen, USA) containing phosphatase (Sigma-Aldrich, USA) and protease inhibitor (Roche, Switzerland) followed by sonication and centrifugation at 12,000×g for 20 minutes at 4° C. to clear the lysates. The supernatant was collected and measured using Pierce BCA Protein Assay Kit (ThermoFisher Scientific) by PHOmo Microplate Reader (Autobio, China). The samples were stored at −80° C. prior to use.
Immunoblotting. Western blot analysis, 10 μg of extracted proteins were diluted in NuPAGE LDS Samples Buffer (Novex Life technologies, USA) containing 5% 2-Mercaptoethanol (Sigma-Aldrich, Germany), and following denatured for 5 minutes at 95° C. The proteins were resolved by 4-12% NuPAGE SDS-PAGE (Novex Life technologies, USA). Blots were often stripped with Thermo Scientific Restore PLUS Western Blot Stripping Buffer (Thermo Fisher Scientific, Germany) for reprobing. The following antibodies were used for immunoblotting: Collagen I (1:1000; ab233080, Abcam, USA), alpha smooth muscle Actin (1:1000; ab124964, Abcam, USA), GAPDH (1:8000; sc-32233, Santa Cruz, USA). Proteins were detected by LumiGLO chemiluminescent system (Cell Signaling Technology, USA) with appropriate secondary antibodies: anti-mouse HRP (1:2500; Dako, Denmark) and anti-rabbit HRP (1:2500; 7074, Cell Signaling Technology, USA) using ChemiDoc MP Imaging System (Bio-Rad, USA).

TK173 cells [2] = assay: ELISA to detect secreted type I collagen (Pro-Collagen I alpha 1) in conditioned media of TGFβ1-treated TK173 fibroblasts; conditions: Homo sapiens, Fibroblast, 10 ng/ml TGFβ1 for 5 days, then compound 48 hours, Pro-Collagen I alpha 1 ELISA of conditioned media, read-out: IC50, concentration where the TGFβ-stimulated collagen secretion is attenuated by 50%
Protocol: as §1, §2
Conditioned media containing the secretome of TK173 fibroblast were harvested after 48 hours of compound treatments. Secretion of pro-Collagen 1 was assessed with Human Pro-Collagen I alpha 1 DuoSet ELISA (R&D Systems, USA). To prepare the ELISA plate, Human Pro-Collagen I α1 Capture Antibody was diluted in ELISA Plate-coating Buffer at 4 μg/ml working concentration. 100 μl of diluted Capture Antibody was added to the 96-well microplates and incubated overnight at room temperature. After three times washing with Wash Buffer, microplates were blocked by adding 300 μl of Reagent Diluent for 1 hour at room temperature. To proceed the ELISA, Human Pro-Collagen I α1 Standards were diluted in Reagent Diluent (range between 31.3 pg/ml-2000 pg/ml) and 100 μl of standards or conditioned mediums were add into designated wells. Microplates were incubated at room temperature for 2 hours. Human Pro-Collagen I α1 Detection Antibody was prepared in Reagent Diluent at 100 ng/ml working concentration and 100 μl of diluted Detection Antibody was applied for 2 hours at room temperature after extensive washing. Then, working solution of Streptavidin-HRP with Reagent Diluent was prepared by diluting 1:40 and added into each well. After 20 minutes at room temperature incubation, microplates were washed and applied with 100 μl of Substrate Solution for 20 minutes followed by Stop Solution after washing. Finally, signals were measured at 450 nm absorbance by PHOmo Microplate Reader (Autobio, China). The amount of pro-collagen 1 antibody fusion was quantified by extrapolating the signal into a linear range of a pro-collagen 1 standard curve. Screening compounds were typically tested in at concentrations between 5 and 200 μg/ml. The IC50 values observed by the dose response curves for each compound (n=4-6, two independent experiments) were obtained by nonlinear regression analysis using Prism 9 software (GraphPad, La Jolla, USA) and represent the concentration where the TGFβ-stimulated collagen secretion is attenuated by 50%.

TK173 cells [3] = assay: Collagen I mRNA PCR assay (qPCR, normalized to GAPDH) in TGFβ1-treated TK173 fibroblasts; conditions: Homo sapiens, Fibroblast, 10 ng/ml TGFβ1 for 5 days, then compound 48 hours
Protocol: as §1, §2
RNA isolation. Total RNA was extracted by the TRIzol reagent (Life technologies, USA) and purified by PureLink RNA Mini Kit (Ambion, USA) according to instructions available from the manufacturer with minor modifications. The samples were stored at −80° C. prior to use. RNA concentrations were measured by NanoDrop Spectrophotometer (ThermoFisher Scientific, USA), and were equilibrated to 100 ng for complementary DNA (cDNA) synthesis.
Quantitative real-time PCR analysis (qPCR). For SYBR Green-based qPCR analysis, cDNA preparation was performed by using DNAse I (Sigma-Aldrich, USA) digestion to remove residual genomic DNA and SuperScript II Reverse Transcriptase kit (Invitrogen, USA) to synthesize cDNA following the manufacturer's detailed instructions. All qPCR reactions were performed using the StepOne Plus Real-Time System (Applied Biosystems, USA) and amplifications were done using the SYBR Green PCR Master Mix (Applied Biosystems, USA). The thermal cycling conditions were initiated to 95° C. for 20 seconds, 40 amplification cycles at 95° C. for 3 seconds and 60° C. for 30 seconds, with one cycle of dissociation at 95° C. for 15 seconds, 60° C. for 60 seconds, and 95° C. for 15 seconds. Three replicates per sample were run in duplicate. The experimental cycle threshold (Ct) values were normalized to those obtained for GAPDH, and the relative gene expression level was determined using the 2_ddCT methods.

## CNc1nn2nnnc2c2ncccc12 (single isomer, unassigned) [Compound 27, N-methylpyrido[2,3-d]tetrazolo[1,5-b]pyridazin-6-amine]
TK173 cells [1]
  IC50: < 30 µg/mL

## Clc1ccc2cnn3nnnc3c2c1 [Compound 51a, 9-chlorotetrazolo[5,1-a]phthalazine]
TK173 cells [1]
  IC50: ≤ 40 µg/mL

## Fc1ccc2cnn3nnnc3c2c1 [Compound 63a, 9-Fluorotetrazolo[5,1-a]phthalazine]
TK173 cells [2]
  IC50: < 30 µg/mL
TK173 cells [1]
  IC50: < 70 µg/mL

## Cc1nn2c(C)nnc2c2ccccc12 [Compound 5, 3,6-Dimethyl-1,2,4-triazolo[3,4-a]phthalazine]
TK173 cells [3]
  IC50: < 20 µg/mL
TK173 cells [2]
  IC50: 39 µg/mL (≈ 197 µM)

## Cc1nnc2c3cc(F)c(F)cc3cnn12 [Compound 65, 8,9-difluoro-3-methyl-[1,2,4]triazolo[3,4-a]phthalazine]
TK173 cells [2]
  IC50: < 50 µg/mL
TK173 cells [1]
  IC50: < 50 µg/mL

## Clc1ccc2c(cnn3nnnc23)c1 [Compound 51b, 8-chlorotetrazolo[5,1-a]phthalazine]
TK173 cells [3]
  IC50: < 5 µg/mL
TK173 cells [1]
  IC50: < 5 µg/mL

## c1cc2c(cnn3nnnc23)s1 [Compound 35, Tetrazolo[1,5-b]thieno[3,2-d]pyridazine]
TK173 cells [2]
  IC50: 30 µg/mL (≈ 169 µM)
TK173 cells [1]
  IC50: < 40 µg/mL

## Cc1nnc2c3c(Cl)cccc3cnn12 [Compound 45, 10-chloro-3-methyl-[1,2,4]triazolo[3,4-a]phthalazine]
TK173 cells [2]
  IC50: 20 µg/mL (≈ 91.5 µM)

## Cc1nnc2c3ccccc3c(NCCO)nn12 [Compound 7, 2-[(3-methyl-1,2,4-triazolo[3,4-a]phthalazin-6-yl)amino]-ethanol]
TK173 cells [2]
  IC50: 32 µg/mL (≈ 132 µM)

## CC(C)Oc1nn2nnnc2c2c(Cl)cccc12 [Compound 72, 10-Chloro-6-isopropoxytetrazolo[5,1-a]phthalazine]
TK173 cells [2]
  IC50: < 5 µg/mL
TK173 cells [1]
  IC50: < 5 µg/mL

## c1ccc2c(c1)cnn1cnnc21 [Compound 15, 1,2,4-Triazolo[3,4-a]phthalazine]
TK173 cells [2]
  IC50: 105 µg/mL (≈ 617 µM)
TK173 cells [1]
  IC50: < 40 µg/mL

## Cc1nn2nnnc2c2ccccc12 [Compound 2, 6-Methyl-tetrazolo[5,1-a]phthalazine]
TK173 cells [2]
  IC50: 58 µg/mL (≈ 313 µM)

## Cc1nnc2c3ccc(Cl)cc3cnn12 [Compound 49b, 8-chloro-3-methyl-[1,2,4]triazolo[3,4-a]phthalazine]
TK173 cells [2]
  IC50: 30 µg/mL (≈ 137 µM)

## Cc1nnc2c3cc(Cl)ccc3cnn12 [Compound 49a, 9-chloro-3-methyl-[1,2,4]triazolo[3,4-a]phthalazine]
TK173 cells [2]
  IC50: < 30 µg/mL
TK173 cells [1]
  IC50: < 50 µg/mL

## OCc1nnc2c3ccccc3cnn12 [Compound 13, 1,2,4-Triazolo[3,4-a]phthalazin-3-yl-methanol]
TK173 cells [2]
  IC50: 87 µg/mL (≈ 435 µM)

## Fc1cc2cnn3nnnc3c2cc1F [Compound 67, 8,9-difluorotetrazolo[5,1-a]phthalazine]
TK173 cells [2]
  IC50: < 3 µg/mL

## Cc1nnc2c3cscc3c(Cl)nn12 [Compound 38, 6-chloro-3-methylthieno[3,4-d][1,2,4]triazolo[4,3-b]pyridazine]
TK173 cells [2]
  IC50: < 80 µg/mL

## Cc1nnc2c3cc(F)ccc3cnn12 [Compound 61a, 9-Fluoro-3-methyl-[1,2,4]triazolo[3,4-a]phthalazine]
TK173 cells [2]
  IC50: 530 µg/mL (≈ 2620 µM)
TK173 cells [1]
  IC50: < 60 µg/mL

## Fc1ccc2c(cnn3nnnc23)c1 [Compound 63b, 8-fluorotetrazolo[5,1-a]phthalazine]
TK173 cells [2]
  IC50: < 50 µg/mL
TK173 cells [1]
  IC50: < 30 µg/mL

## COc1ccc2cnn3c(C)nnc3c2c1 [Compound 69a, 9-Methoxy-3-methyl-[1,2,4]triazolo[3,4-a]phthalazine]
TK173 cells [2]
  IC50: < 30 µg/mL
TK173 cells [1]
  IC50: < 30 µg/mL

## FC(F)(F)c1nnc2c3ccccc3cnn12 [Compound 10, 3-Trifluoromethyl-1,2,4-Triazolo[3,4-a]phthalazine]
TK173 cells [2]
  IC50: 93 µg/mL (≈ 390 µM)

## CCc1nnc2c3ccccc3cnn12 [Compound 14, 3-Ethyl-1,2,4-triazolo[3,4-a]phthalazine]
TK173 cells [1]
  IC50: < 30 µg/mL

## Cc1nnc2c3ccc(F)cc3cnn12 [Compound 61b, 8-fluoro-3-methyl-[1,2,4]triazolo[3,4-a]phthalazine]
TK173 cells [2]
  IC50: < 30 µg/mL
TK173 cells [1]
  IC50: < 80 µg/mL

## Cc1nnc2c3cc(Cl)c(Cl)cc3cnn12 [Compound 53, 8,9-Dichloro-3-methyl-[1,2,4]triazolo[3,4-a]phthalazine]
TK173 cells [2]
  IC50: < 20 µg/mL
TK173 cells [1]
  IC50: < 60 µg/mL

## [2H]C([2H])([2H])c1nnc2c3ccccc3cnn12 [Compound 12, 3-D3-Methyl-1,2,4-triazolo[3,4-a]phthalazine]
TK173 cells [3]
  IC50: < 50 µg/mL
TK173 cells [1]
  IC50: < 5 µg/mL

## Clc1cccc2cnn3nnnc3c12 [Compound 47a, 10-chlorotetrazolo[5,1-a]phthalazine]
TK173 cells [2]
  IC50: < 5 µg/mL

## c1nn2nnnc2c2cscc12 [Compound 41, Tetrazolo[1,5-b]thieno[3,4-d]pyridazine]
TK173 cells [2]
  IC50: < 60 µg/mL

## Fc1cccc2cnn3nnnc3c12 [Compound 59a, 10-Fluorotetrazolo[5,1-a]phthalazine]
TK173 cells [2]
  IC50: < 20 µg/mL

## COc1cc2cnn3c(C)nnc3c2cc1OC [Compound 9, 8,9-Dimethoxy-3-methyl-1,2,4-triazolo[3,4-a]phthalazine]
TK173 cells [2]
  IC50: 10 µg/mL (≈ 40.9 µM)
TK173 cells [1]
  IC50: < 1 µg/mL

## Cc1nnc2c3ccccc3c(C#N)nn12 [Compound 6, 3-Methyl-1,2,4-triazolo[3,4-a]phthalazine-6-carbonitrile]
TK173 cells [2]
  IC50: 61 µg/mL (≈ 292 µM)
TK173 cells [1]
  IC50: < 5 µg/mL

## COc1ccc2c(cnn3c(C)nnc23)c1 [Compound 69b, 8-methoxy-3-methyl-[1,2,4]triazolo[3,4-a]phthalazine]
TK173 cells [2]
  IC50: < 30 µg/mL
TK173 cells [1]
  IC50: < 80 µg/mL

## Clc1cc2cnn3nnnc3c2cc1Cl [Compound 55, 8,9-Dichlorotetrazolo[5,1-a]phthalazine]
TK173 cells [2]
  IC50: < 10 µg/mL
TK173 cells [1]
  IC50: < 20 µg/mL

## Fc1cccc2c1cnn1nnnc21 [Compound 59b, 7-fluorotetrazolo[5,1-a]phthalazine]
TK173 cells [2]
  IC50: < 5 µg/mL

## Cc1nnc2c3cscc3cnn12 [Compound 39, 3-methylthieno[3,4-d][1,2,4]triazolo[4,3-b]pyridazine]
TK173 cells [2]
  IC50: < 80 µg/mL
